Molecular target: T1, LdtR (Candidatus Liberibacter asiaticus, UniProt A0ABN4AZS1)
T1 construct: gene WSI_01095
Type: binding
Conditions: promoters of CLIBASIA_02120 and CLIBASIA_03520; pH 7.2, 150 mM KCl, 10 mM MgCl2, 37 °C

Structure (SMILES)	EMSA, disruption of LdtR binding to promoter DNA
O=C(CCc1ccc(O)cc1)c1c(O)cc(O)cc1O [phloretin]	benzbromarone and phloretin disrupted the binding of LdtR to both promoters (Fig. S2)
CCc1oc2ccccc2c1C(=O)c1cc(Br)c(O)c(Br)c1 [benzbromarone]	benzbromarone and phloretin disrupted the binding of LdtR to both promoters (Fig. S2)

— paper PMC5481520 (Microbial Biotechnology, 2017)
